According to patent US10590109B2, “Heterocyclic compounds used as FGFR inhibitors” (Nanjing InnoCare Pharma Tech Co., Ltd., priority 2016, dated 2020):

How the values were obtained:
Type in all cases: biochemical
[1] = target: human recombinant FGFR1 catalytic structural domain protein (Homo sapiens (Human), UniProt P11362); assay: FGFR1 activity inhibition test (HTRF kinase assay); settings: 40 μM ATP
Protocol: FGFR1 Activity Inhibition Test
The influence of the compound according to the present invention on the activity of fibroblast growth factor receptor 1 (FGFR1) was evaluated by an in vitro kinase assay experiment.
(§1) The experimental method is summarized as follows:
The in vitro activity of FGFR1 was determined by assaying the phosphorylation level of the substrate in the kinase reaction, by means of an HTRF kinase assay kit.
(§2) If the IC50 value of the compound was very low, the initial concentration of the compound could be reduced.
(§3) After 60 min, the enzyme reaction was terminated by EDTA in the assay solution, and the phosphorylated products were identified by both the Eu^3+ labeled cage-shaped antibody (donor) and the streptavidin labeled XL665 antibody (receptor) at the same time. […] The inhibition percentage of the compound against FGFR1 activity could be calculated with the following formula: Inhibition percentage=100−100*(signalcompound−signalnegative control)/(signalpositive control−signalnegative control)
(§4) The IC50 value of the compound was calculated by the following formula, from 10 concentration points, with XLfit (ID Business Solutions Ltd., UK): Y=Bottom+(Top−Bottom)/(1+10^((Log IC50−X)*slope factor))
(§5) Where, Y is the inhibition percentage, Bottom is the bottom plateau of the curve (the bottom plateau of the S-type curve), Top is the top plateau of the curve (the top plateau of the S-type curve), and X is the log value of the compound concentration to be measured.

[2] = target: human recombinant FGFR4 catalytic structural domain protein (Homo sapiens (Human), UniProt P22455); assay: FGFR4 activity inhibition test (HTRF kinase assay); settings: 90 μM ATP
Protocol: FGFR4 Activity Inhibition Test
The influence of the compound according to the present invention on the activity of fibroblast growth factor receptor 4 (FGFR4) was evaluated by an in vitro kinase assay experiment.
as §1
The in vitro activity of FGFR4 was determined by assaying the phosphorylation level of the substrate in the kinase reaction, by means of an HTRF kinase assay kit.
as §2
as §3, with “FGFR4” for “FGFR1”
The IC50 value of the compound was calculated by the following formula, from 10 concentration points, with XLfit (ID Business Solutions Ltd., UK): Y=Bottom+(Top−Bottom)/(1+10^((Log IC50−X)*slope factor)) Where, Y is the inhibition percentage, Bottom is the bottom plateau of the curve (the bottom plateau of the S-type curve), Top is the top plateau of the curve (the top plateau of the S-type curve), and X is the log value of the compound concentration to be measured.

[3] = target: human recombinant FGFR2 catalytic structural domain protein (Homo sapiens (Human), UniProt P21802); assay: FGFR2 activity inhibition test (HTRF kinase assay); settings: 50 μM ATP
Protocol: FGFR2 Activity Inhibition Test
The influence of the compound according to the present invention on the activity of fibroblast growth factor receptor 2 (FGFR2) was evaluated by an in vitro kinase assay experiment.
as §1
The in vitro activity of FGFR2 was determined by assaying the phosphorylation level of the substrate in the kinase reaction, by means of an HTRF kinase assay kit. The reaction buffer comprised the following components: 5-fold diluted Enzymatic buffer/kinase 5× (Cisbio, Catalog number 62EZBFDD) (main ingredient: 50 mM HEPES, pH 7.0), 5 mM MgCl2, 1 mM DTT; the human recombinant FGFR2 catalytic structural domain protein (amino acids 400-821) was commercially available from Beijing Sino Biological Inc., diluted with the reaction buffer to a 0.045 ng/μL kinase solution; the substrate reaction solution comprised a biotin labeled tyrosine kinase substrate diluted with the reaction buffer to 800 nM (Cisbio, catalog number 62TK0PEC), and 50 μM ATP, and the assay solution comprised an Eu^3+ labeled cage-shaped antibody (Cisbio, Catalog number 61T66KLB) diluted with the assay buffer (Cisbio, Catalog number 62SDBRDF) to 0.125 ng/μL, and 50 nM streptavidin labeled XL665 (Cisbio, Catalog number 610SAXLB).
The compound was dissolved and diluted in 100% DMSO to 100 μM, then 4-fold-series diluted with DMSO to a minimum concentration of 0.0061 μM, and each concentration point was then 40-fold diluted with the reaction buffer. If the IC50 value of the compound was very low, the initial concentration of the compound could be reduced.
4 μL of a compound solution and 2 μL of an FGFR2 kinase solution were added into a 384 well assay plate (Thermo, Catalog number 264706), mixed uniformly and then incubated for 15 min at room temperature; subsequently, 4 μL of the substrate reaction solution was added therein, and the reaction mixture was incubated for 60 min at room temperature; and then 10 μL of an assay solution of an equal volume to the reaction was added therein and mixed uniformly, followed by placement at room temperature. After 60 min, the enzyme reaction was terminated by EDTA in the assay solution, and the phosphorylated products were identified by both the Eu^3+ labeled cage-shaped antibody (donor) and the streptavidin labeled XL665 antibody (receptor) at the same time. After the excitation with laser, the donors and receptors that were close to each other experienced energy resonance transfer, and the energy transferred from the donor (620 nm) to the receptor (665 nm) could be detected with Envision. The ratio of 665/620 is in positive correlation to the phosphorylation degree of the substrate, thereby to detect the FGFR2 kinase activity. […] The inhibition percentage of the compound against FGFR2 activity could be calculated with the following formula: Inhibition percentage=100−100*(signalcompound−signalnegative control)/(signalpositive control−signalnegative control)
as §4, §5

Sequence of human recombinant FGFR2 catalytic structural domain protein (P21802 400-821): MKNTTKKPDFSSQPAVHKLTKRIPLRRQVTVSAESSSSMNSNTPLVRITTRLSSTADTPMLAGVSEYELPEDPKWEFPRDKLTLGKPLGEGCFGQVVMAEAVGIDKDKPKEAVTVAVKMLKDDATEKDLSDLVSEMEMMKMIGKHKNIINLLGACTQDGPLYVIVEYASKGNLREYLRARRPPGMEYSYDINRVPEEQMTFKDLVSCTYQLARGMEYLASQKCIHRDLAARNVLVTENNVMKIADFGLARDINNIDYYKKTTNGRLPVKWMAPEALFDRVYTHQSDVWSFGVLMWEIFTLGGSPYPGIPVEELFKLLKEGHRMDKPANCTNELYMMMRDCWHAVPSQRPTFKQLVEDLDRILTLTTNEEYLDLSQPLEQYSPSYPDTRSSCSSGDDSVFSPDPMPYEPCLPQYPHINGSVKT
Sequence of human recombinant FGFR1 catalytic structural domain protein (P11362 other isoform, or with tags, fused parts or gaps): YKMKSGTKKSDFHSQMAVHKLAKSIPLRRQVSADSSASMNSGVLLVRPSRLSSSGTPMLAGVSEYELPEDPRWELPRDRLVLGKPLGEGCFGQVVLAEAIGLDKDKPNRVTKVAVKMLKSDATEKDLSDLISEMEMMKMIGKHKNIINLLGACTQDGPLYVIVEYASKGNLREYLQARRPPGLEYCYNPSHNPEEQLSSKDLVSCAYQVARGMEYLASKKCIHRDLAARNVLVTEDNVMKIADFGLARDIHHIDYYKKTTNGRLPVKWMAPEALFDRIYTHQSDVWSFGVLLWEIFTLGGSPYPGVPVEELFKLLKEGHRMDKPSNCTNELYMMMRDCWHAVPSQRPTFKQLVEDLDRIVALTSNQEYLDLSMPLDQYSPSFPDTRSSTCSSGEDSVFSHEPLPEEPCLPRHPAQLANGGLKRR
Sequence of human recombinant FGFR4 catalytic structural domain protein (P22455 460-802): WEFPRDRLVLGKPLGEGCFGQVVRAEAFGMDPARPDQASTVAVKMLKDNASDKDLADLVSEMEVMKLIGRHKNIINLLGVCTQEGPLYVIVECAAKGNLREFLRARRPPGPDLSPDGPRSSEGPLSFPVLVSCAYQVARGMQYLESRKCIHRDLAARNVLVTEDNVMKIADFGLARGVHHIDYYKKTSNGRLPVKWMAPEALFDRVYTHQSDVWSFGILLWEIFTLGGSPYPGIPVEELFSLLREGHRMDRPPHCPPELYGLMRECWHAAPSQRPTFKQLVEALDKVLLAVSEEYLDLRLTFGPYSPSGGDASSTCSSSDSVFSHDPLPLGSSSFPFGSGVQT

- IC50 [1]: > 1000 nM
- IC50 [2]: < 10 nM
- IC50 [3]: > 1000 nM
Structure (SMILES): COC[C@@H](C)Oc1cc(NC(=O)N(C)c2ccc(CN3CCOCC3=O)c(C=O)n2)ncc1C#N [Compound 14, (R)-3-(5-cyano-4-((1-methoxyprop-2-yl)oxo)pyrid-2-yl)-1-(6-formyl-5-((3-carbonylmorpholino)methyl)pyrid-2-yl)-1-methylurea]
